Reference: patent US20170334934A1, “Macrocyclic picolinamides as fungicides” (DOW AGROSCIENCES LLC, priority 2014, published 2017)
Read-outs that look alike come from different tables or passages of the source.

What was measured:
[1] = system: Puccinia triticina; test: Fungicidal activity: Wheat Brown Rust (PUCCRT), wheat seedlings; assay type: in vivo; details: Low Volume (121.5 g/H)
Method: Technical grades of materials were dissolved in acetone, which were then mixed with nine volumes of water containing 110 ppm Triton X-100. The fungicide solutions were applied onto wheat seedlings using an automated booth sprayer to run-off. All sprayed plants were allowed to air dry prior to further handling. All fungicides were evaluated using the aforementioned method for their activity vs. all target diseases, unless stated otherwise. Wheat leaf blotch and brown rust activity were also evaluated using track spray applications, in which case the fungicides were formulated as EC formulations, containing 0.1% Trycol 5941 in the spray solutions. Wheat plants (variety Yuma) were grown from seed in a greenhouse in 50% mineral soil/50% soil-less Metro mix until the first leaf was fully emerged, with 7-10 seedlings per pot. These plants were inoculated with an aqueous spore suspension of Zymoseptoria tritici either prior to or after fungicide treatments. After inoculation the plants were kept in 100% relative humidity (one day in a dark dew chamber followed by two to three days in a lighted dew chamber at 20° C.) to permit spores to germinate and infect the leaf. The plants were then transferred to a greenhouse set at 20° C. for disease to develop. When disease symptoms were fully expressed on the 1st leaves of untreated plants, infection levels were assessed on a scale of 0 to 100 percent disease severity. Percent disease control was calculated using the ratio of disease severity on treated plants relative to untreated plants. Example B: Evaluation of Fungicidal Activity: Wheat Brown Rust (Puccinia triticina; Synonym: Puccinia recondita f. sp. tritici; Bayer Code PUCCRT) Wheat plants (variety Yuma) were grown from seed in a greenhouse in 50% mineral soil/50% soil-less Metro mix until the first leaf was fully emerged, with 7-10 seedlings per pot. These plants were inoculated with an aqueous spore suspension of Puccinia triticina either prior to or after fungicide treatments. After inoculation the plants were kept in a dark dew room at 22° C. with 100% relative humidity overnight to permit spores to germinate and infect the leaf. The plants were then transferred to a greenhouse set at 24° C. for disease to develop. Fungicide formulation, application and disease assessment followed the procedures as described in the Example A.

[2] = system: Mycosphaerella graminicola; Anamorph: Zymoseptoria tritici; test: Fungicidal activity: Leaf Blotch of Wheat (SEPTTR), wheat seedlings; assay type: in vivo; details: Low Volume (121.5 g/H), wheat
Method: Example A: Evaluation of Fungicidal Activity: Leaf Blotch of Wheat (Mycosphaerella graminicola; Anamorph: Zymoseptoria tritici; Bayer Code […]) Technical grades of materials were dissolved in acetone, which were then mixed with nine volumes of water containing 110 ppm Triton X-100. The fungicide solutions were applied onto wheat seedlings using an automated booth sprayer to run-off. All sprayed plants were allowed to air dry prior to further handling. All fungicides were evaluated using the aforementioned method for their activity vs. all target diseases, unless stated otherwise. Wheat leaf blotch and brown rust activity were also evaluated using track spray applications, in which case the fungicides were formulated as EC formulations, containing 0.1% Trycol 5941 in the spray solutions. Wheat plants (variety Yuma) were grown from seed in a greenhouse in 50% mineral soil/50% soil-less Metro mix until the first leaf was fully emerged, with 7-10 seedlings per pot. These plants were inoculated with an aqueous spore suspension of Zymoseptoria tritici either prior to or after fungicide treatments. After inoculation the plants were kept in 100% relative humidity (one day in a dark dew chamber followed by two to three days in a lighted dew chamber at 20° C.) to permit spores to germinate and infect the leaf. The plants were then transferred to a greenhouse set at 20° C. for disease to develop. When disease symptoms were fully expressed on the 1st leaves of untreated plants, infection levels were assessed on a scale of 0 to 100 percent disease severity. Percent disease control was calculated using the ratio of disease severity on treated plants relative to untreated plants.

[3] = 24 h, 1 Day Protectant, read-out: PUCCRT disease control rating, 1DP
[4] = 72 h, 3 Day Curative, read-out: PUCCRT disease control rating, 3DC
[5] = 24 h, 1 Day Protectant, read-out: SEPTTR disease control rating, 1DP
[6] = 72 h, 3 Day Curative, read-out: SEPTTR disease control rating, 3DC

melting point [°C]	SMILES	pest or weed control at 121.5 g/ha [1, 3] [%]	pest or weed control at 121.5 g/ha [1, 4] [%]	pest or weed control at 121.5 g/ha [2, 5] [%]	pest or weed control at 121.5 g/ha [2, 6] [%]
43 to 48	COc1ccnc(C(=O)N[C@H]2CCOC[C@@H](OCCCC(F)(F)F)[C@H](C)OC2=O)c1OC(C)=O [Compound 101]	> 70	> 70	< 70	< 70
80 to 83	C[C@@H]1OC(=O)[C@@H](NC(=O)OC(C)(C)C)CCOC[C@H]1OCCCC(F)(F)F [Compound 30]	–	–	–	–
99 to 103	CC(C)CO[C@@H]1COCC[C@H](NC(=O)OC(C)(C)C)C(=O)O[C@H]1C [Compound 29]	–	–	–	–
148 to 152	C[C@@H]1OC(=O)[C@@H](NC(=O)OC(C)(C)C)CCOC[C@H]1O [Compound 24, tert-butyl ((3R,4S,7S)-3-hydroxy-4-methyl-6-oxo-1,5-dioxonan-7-yl)carbamate]	–	–	–	–
–	CC[C@H]1OCC[C@H](NC(=O)c2nccc(OC)c2OCOC(C)=O)C(=O)O[C@@H](C)[C@@H]1Oc1ccc(F)cc1 [Compound 91]	> 70	> 70	> 70	> 70
